The values below come from ChEMBL document CHEMBL1201862, “PubChem BioAssay data set” (2004).

What all share (experiment): inhibition of tumour cell growth, NCI panel, 48 h
Assay [1] concerns TK-10.
For assay [2], the system named is LXFL 529.
The subject of assay [3] is SF-539.
Assay [4] deals with SK-MEL-2.
The test system of assay [5] is KM12.
Assay [6] deals with OVCAR-4.
Assay [7] deals with NCI-H460.
Assay [8] has as its system Malme-3M.
Assay [9] concerns UO-31.
The subject of assay [10] is SF-295.
The subject of assay [11] is M14.
The subject of assay [12] is ACHN.
Assay [13] relates to HCT-15.
Assay [14] deals with EKVX.
Assay [15] concerns K562.
Assay [16] concerns SNB-78.
Assay [17] relates to SK-OV-3.
The subject of assay [18] is HOP-92.

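Dose response: 5 concentrations. Exposure: 48 h. Format: 96-well plates. Endpoint: linear interpolation; highest concentration if not reached. GI50 marks 50% less growth.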 Activity calls are given as the source filed them. Rule as the data show it: active = GI50 up to about 1.1 µM and inactive = higher.

Turning to `CN1CCn2c(Br)ccc2C1=O`, the GI50 in assay [1], in assay [2], in [3], in [4], in assay [5] and in assay [6] was > 100 µM (inactive) each time. Also, the GI50 in assay [7], in assay [8], in assay [9], in assay [10], in [11] and in assay [12] was > 100 µM (inactive) each time. For the same compound, the GI50 was above 100 µM in assay [13], > 100 µM (inactive) in assay [14], > 100 µM (inactive) in [15] and > 100 µM (inactive) in [16].
Consider `Cc1c2n(c3ccccc13)CC1C2N(C)OC1(C)C` (centres undefined), for which the GI50 in [3], in [4], in assay [17], in assay [5], in assay [6] and in [7] was > 100 µM (inactive) throughout. For the same compound, the GI50 in assay [8] was > 100 µM (inactive); in assay [9], 86.7 µM (inactive); in assay [10], > 100 µM (inactive); in assay [11] it was > 100 µM (inactive); in assay [12], > 100 µM (inactive); in assay [13], above 100 µM. The GI50 in assay [14], in assay [15] and in assay [16] was > 100 µM (inactive) throughout.
As for `O=C(NS(=O)(=O)c1ccccc1)C(Cc1ccccc1)C(Cc1ccccc1)C(=O)NS(=O)(=O)c1ccccc1` (centres undefined), the GI50 in [1], in assay [2], in [3], in assay [4], in [17] and in assay [5] was > 100 µM (inactive) each time. Besides, the GI50 in assay [18], in [6], in assay [7], in assay [8], in assay [9] and in assay [10] was > 100 µM (inactive) each time. In addition, the GI50 in assay [11], in assay [12], in assay [14] and in assay [15] was > 100 µM (inactive) throughout.
Regarding `O=S1(=O)c2ccccc2N(O)C2=NCCN21`, the GI50 in [1], in assay [2], in assay [3], in [4], in [17] and in assay [5] was > 100 µM (inactive) in each case. In addition, the GI50 in assay [18], in assay [7], in [8], in assay [9], in assay [10] and in assay [11] was > 100 µM (inactive) in each case. In addition, the GI50 in [12], in assay [14], in assay [15] and in [16] was > 100 µM (inactive) in each case.
In the case of `CCOC(=O)C1(c2ccccc2)CCCNCC1` (centres undefined), the GI50 in assay [1] is > 100 µM (inactive); in [2], > 100 µM (inactive); in assay [4], > 100 µM (inactive); in assay [17] it was > 100 µM (inactive); in assay [5], > 100 µM (inactive); in [18] it was 75.2 µM (inactive). Further, the GI50 in [6] was > 100 µM (inactive); in assay [7], 29 µM (inactive); in assay [8], > 100 µM (inactive); in [9], > 100 µM (inactive); in assay [10] it was > 100 µM (inactive); in assay [11], > 100 µM (inactive). The GI50 in assay [12] is 85.9 µM (inactive); in assay [13], 72.9 µM; in [14], > 100 µM (inactive); in assay [15], > 100 µM (inactive); in assay [16], > 100 µM (inactive).
`CC1=N/C(=C\c2cccc([N+](=O)[O-])c2)C(=O)O1`: the GI50 in assay [1], in [2], in [3], in assay [4], in assay [5] and in [18] was > 100 µM (inactive) throughout. The GI50 in assay [7], in assay [8], in assay [9], in [10], in [11] and in assay [12] was > 100 µM (inactive) each time. Besides, the GI50 in assay [13] is above 100 µM; in assay [14] it was > 100 µM (inactive); in assay [15], > 100 µM (inactive); in assay [16], 86.1 µM (inactive).
As for `COc1cc(C(N)=O)c(OC)c(OC)c1OC`, the GI50 in assay [1], in [2], in assay [3], in assay [4], in [17] and in assay [5] was > 100 µM (inactive) in each case. Besides, the GI50 in assay [18], in assay [6], in assay [7], in assay [9], in assay [10] and in [11] was > 100 µM (inactive) in each case. In addition, the GI50 in [12] is > 100 µM (inactive); in assay [13] it was above 100 µM; in assay [14], > 100 µM (inactive); in [15] it was > 100 µM (inactive); in assay [16] it was > 100 µM (inactive).
`CCC1C(=O)OCc2c1cc1n(c2=O)CCC12OCCO2` (centres undefined): the GI50 in assay [1], in [2], in [3], in assay [4], in [17] and in [5] was > 100 µM (inactive) each time. For the same compound, the GI50 in assay [18], in assay [6], in [7], in assay [9], in assay [10] and in assay [11] was > 100 µM (inactive) each time. Besides, the GI50 was > 100 µM (inactive) in assay [12]; above 100 µM in assay [13]; > 100 µM (inactive) in [14]; > 100 µM (inactive) in [15]; > 100 µM (inactive) in assay [16].
As to `O=C(O)c1c[nH]c2c(ccc3ncccc32)c1=O`, the GI50 in assay [1], in [2], in assay [3], in [4], in [17] and in [5] was > 100 µM (inactive) throughout. Further, the GI50 in assay [6], in assay [7], in assay [8], in [9], in [11] and in assay [12] was > 100 µM (inactive) each time. Also, the GI50 in assay [13] is above 100 µM; in assay [14], > 100 µM (inactive); in assay [15] it was > 100 µM (inactive); in assay [16], > 100 µM (inactive).
`CC(=O)OCC1OC(OC2C(CSC3OC(COC(C)=O)C(OC(C)=O)C(OC(C)=O)C3OC(C)=O)OC(OC(C)=O)C(OC(C)=O)C2OC(C)=O)C(OC(C)=O)C(OC(C)=O)C1OC(C)=O` (centres undefined): the GI50 in assay [1], in assay [2], in assay [3], in [17], in [5] and in assay [18] was > 100 µM (inactive) throughout. For the same compound, the GI50 in assay [6], in assay [7], in assay [8], in assay [9], in assay [10] and in [11] was > 100 µM (inactive) throughout. In addition, the GI50 in assay [12] was > 100 µM (inactive); in assay [13] it was above 100 µM; in assay [14], > 100 µM (inactive); in assay [15], > 100 µM (inactive); in [16], > 100 µM (inactive).
Regarding `CC(=O)CCn1ncc(Cl)c(Cl)c1=O`, the GI50 in assay [1] was 48.6 µM (inactive); in assay [2] it was 13.4 µM (inactive); in assay [3] it was 22.2 µM (inactive); in assay [4] it was 14.2 µM (inactive); in assay [5], 17.7 µM (inactive); in assay [18] it was 17 µM (inactive). Also, the GI50 in assay [6] was 9.95 µM (inactive); in assay [7], 20.2 µM (inactive); in assay [8], 20.7 µM (inactive); in assay [9], 20 µM (inactive); in [10], 19.1 µM (inactive); in [11] it was 15.7 µM (inactive). Besides, the GI50 in assay [12] was 17 µM (inactive); in assay [13], 6.55 µM; in assay [14], 18.6 µM (inactive); in assay [15] it was 3.51 µM (inactive); in [16], 19.8 µM (inactive).
Turning to `O=S1(=O)CSc2ccc3ccccc3c2-c2c1ccc1ccccc21`, the GI50 in assay [1], in [2], in assay [3], in [5], in assay [18] and in [6] was > 100 µM (inactive) each time. Also, the GI50 in assay [7], in assay [8], in assay [9], in [10], in assay [11] and in [12] was > 100 µM (inactive) in each case. Further, the GI50 in [15] and in [16] was > 100 µM (inactive) throughout.
